system: IFN-γ-producing cells (antigen-specific cellular immunity); experiment: Mouse immunization test 3 (liquid formulation for external use), IFN-γ ELISPOT; assay type: in vivo, C57BL/6 mouse; details: compared with acid-free comparative example
Experimental: (§1) Mouse immunization test was performed with the cream formulations using a model animal for immunological evaluation. Evaluation of the immunity induction level was performed by the ELISPOT method. Specifically, the hair of the back of the mouse was cut. The mouse was kept until it recovered from the skin damage due to the hair cutting. After that, a sample was applied to the back of the mouse for the predetermined time, and then removed. Then, the mouse was kept for predetermined days and the level of the antigen-specific cellular immunity was evaluated. After predetermined days from the application of the sample, the spleen was isolated and a spleen cell suspension was prepared. Spleen cells (3×10^6 cells/well) and the antigen peptide (100 μM) together with the culturing medium were placed into a well of an ELISPOT plate on which an anti-mouse IFN-γ antibody had been immobilized. The plate was cultured for 20 hours under the condition of 37° C. and 5% CO2. The number of the spots representing IFN-γ-producing cells (spot number/3×10^6 cells) was evaluated by the ELISPOT method. In all cases, 4 mg of the cream formulation was applied once for 24 hours and the spleen was isolated 6 days after the completion of the application.
Mouse Immunization Test 3 (Liquid Formulation for External Use)
Using a liquid formulation for external use produced as described above, mouse immunization test was performed in the same manner as that in the mouse immunization test 1. The dose was 67 μL as described above. The liquid formulation was applied once for 24 hours/week and a spleen was isolated 6 days after completion of the application. The mouse used was a C57BL/6.

| SMILES | cellular immunity induction, in words (acid added to liquid formulation) |
| --- | --- |
| O=C(O)CC(O)C(=O)O (racemic) [malic acid] | effective |
| O=C(O)CC(O)(CC(=O)O)C(=O)O [citric acid] | effective |
| CC(O)C(=O)O (stereo not drawn) [lactic acid] | effective |
| O=C(O)/C=C\C(=O)O [maleic acid] | effective |
| CS(=O)(=O)O [methanesulfonic acid] | effective |
| O=C(O)c1ccccc1O [salicylic acid] | effective |

system: IFN-γ-producing cells (antigen-specific cellular immunity); experiment: Mouse immunization test 2 (tape preparation), IFN-γ ELISPOT; assay type: in vivo, genetically modified mouse; details: compared with acid-free comparative example
Experimental: as §1
Mouse Immunization Test 2 (Tape Preparation)
Using thus obtained tape preparation, mouse immunization test 2 was performed in the same manner as in the mouse immunization test 1. The preparation was applied once for 24 hours/week and a spleen was isolated 6 days after administration. Genetically modified mouse which can be used to evaluate the cellular immunity inducing ability of the HLA-A*0201 type MHC restricted peptide was used as model animal for immunological evaluation.
In Example 69, the skin was injured with a microcutter (MICRO FEATHER No. 7330G, manufactured by FEATHER) before the application of the preparation.

| SMILES | cellular immunity induction, in words (acid blended in tape preparation) |
| --- | --- |
| CCCCCCCCCC(=O)O [decanoic acid] | strong cellular immunity was induced |
| CC(C)CCCCCCCCCCCCCCC(=O)O [isostearic acid] | excellent results |
| CC(O)C(=O)O (stereo not drawn) [lactic acid] | excellent results |
| CCCCCCCCCCCC(=O)O [lauric acid] | excellent results |
| CCCCCCCCCCCCCC(=O)O [myristic acid] | excellent results |
| CCCCCCCC/C=C\CCCCCCCC(=O)O [oleic acid] | excellent results |
